Laboratory results: patent US20020177621A1, “Antifungal fragrance composition” (priority 2000, published 2002)
Where “and” joins values, the source holds several entries; their conditions need not be identical. Identical values can stand only once. Entries after “also recorded” stand apart in the source; their conditions may differ.

Tests used:
Type in all cases: cell-based
[1] = test system: Cladosporium cladosporioides IFO 6348 (Cc-1); assay: Fragrant vapor antifungal activity (impregnated paper disc on cover of inverted agar plate); details: 72 hours at 27° C.; for IZ: Diameter of growth inhibition zone: 20 μl fragrance (or 40 μl of 50% ethanol solution) on disc, >85 = growth inhibited over entire plate; for Growth: Growth status outside the inhibition zone: compared with control
Experimental: (§1) Physiological saline containing 0.05% Tween-80 was added to a slant on which the test organism grew well, and a spore suspension was produced at 1×10^6 CFU (Colony Forming Units)/ml in accordance with ordinary methods. Potato dextrose agar (PDA: Nissui Pharmaceutical) was used for the medium. To begin with, 10 ml of sterile PDA was pipetted into a Petri dish and after it solidified, another 6 ml of PDA containing 1% of the above described spore suspension was overlaid and solidified to prepare the test agar plate. For the fragrance sample, if the sample is in the form of liquid at ordinary temperatures, 20 μl of liquid was directly impregnated into a paper disc (Advantech, diameter: 8 mm, thick material), while a 50% by weight ethanol solution was prepared for crystals or powder, and 40 μl of that solution was then impregnated into the paper disc.
(§2) The test agar plate was placed inversely, and the paper disc impregnated with the fragrance sample was placed in the center of the cover of the agar plate, followed by incubating for 72 hours at 27° C. Evaluation was made based on the diameter (mm) of the mold growth inhibition zone. When mold growth was inhibited over the entire surface of the agar plate, the diameter of the growth inhibition zone was reported as >85 mm. At locations where mold grew outside the inhibition zone, the diameter of the spore formation inhibition zone and the degree of growth were recorded by comparing with a control. The molds used in the test are shown in Table 1, wherein these molds consist of mold species that are isolated at high frequencies from rooms and bath rooms.
(§3) The amount of blended fragrance added to the paper discs was 20 μl each, and only the diameter of the inhibition zone (mm) is indicated for the results.

[2] = test system: Aspergillus niger IFO 9455 (An-1); assay: as above; details: 72 hours at 27° C.; for IZ: Diameter of growth inhibition zone: 20 μl fragrance (or 40 μl of 50% ethanol solution) on disc, >85 = growth inhibited over entire plate; for Growth: Growth status outside the inhibition zone / SI: Diameter of spore formation inhibition zone: 20 μl fragrance on disc; for Growth: Growth status outside the inhibition zone: compared with control
Experimental: as §1, §2, §3

[3] = test system: Aureobasidium pullulans IFO 6353 (Ap-1); assay: as above; details: 72 hours at 27° C.; for IZ: Diameter of growth inhibition zone: 20 μl fragrance (or 40 μl of 50% ethanol solution) on disc, >85 = growth inhibited over entire plate; for Growth: Growth status outside the inhibition zone / SI: Diameter of spore formation inhibition zone: 20 μl fragrance on disc; for Growth: Growth status outside the inhibition zone: compared with control
Experimental: as §1, §2, §3

An-1 (Aspergillus niger) = assay: Confirmation of synergistic action of two fragrances (vapor, paper disc); details: for Additive effect: second fragrance that shows additive action with the fragrance component / Synergistic effect: second fragrance that shows synergistic action with the fragrance component / Antagonistic effect: second fragrance that shows antagonistic action with the fragrance component: value = combination partner; for Additive effect: second fragrance that shows additive action with the fragrance component: combined IZ intermediate; for IZ (diameter of growth inhibition zone) / Growth (growth status outside the inhibition zone) / SI (diameter of spore formation inhibition zone): 72 hours at 27° C.; for IZ (diameter of growth inhibition zone): sample amount on disc: citral 2 μl, benzaldehyde 10 μl, dimethyl tetrahydrobenzaldehyde 20 μl, geraniol 10 μl, octyl aldehyde 20 μl, 9-decen-1-ol 0.5 μl, trans-2-undecenal 3 μl, phenylacetaldehyde 5 μl, A + B = both amounts on one disc; for Growth (growth status outside the inhibition zone): sample amounts as in Table 3 (citral 2 μl, benzaldehyde 10 μl, dimethyl tetrahydrobenzaldehyde 20 μl, geraniol 10 μl, octyl aldehyde 20 μl, 9-decen-1-ol 0.5 μl, trans-2-undecenal 3 μl, phenylacetaldehyde 5 μl; A + B = both); for SI (diameter of spore formation inhibition zone): sample amounts as in Table 3 (citral 2 μl, benzaldehyde 10 μl, dimethyl tetrahydrobenzaldehyde 20 μl, geraniol 10 μl, octyl aldehyde 20 μl, trans-2-undecenal 3 μl, phenylacetaldehyde 5 μl; A + B = both); for Synergistic effect: second fragrance that shows synergistic action with the fragrance component: combined IZ 20 mm or more larger than sum of single IZ; for Antagonistic effect: second fragrance that shows antagonistic action with the fragrance component: combined IZ 20 mm or more smaller than sum of single IZ
Experimental: An agar plate prepared according to the method of Example 1 was used while using An-1 (Aspergillus niger) for the test fungi. […] 10 μl of the ethanol containing the Table 3 prescribed amount of the fragrance was impregnated into a paper disc. The test agar plate was placed inversely, and the paper disc impregnated with each fragrance alone and a paper disc simultaneously impregnated with two types of fragrances were placed in the center of the cover, followed by incubating for 72 hours at 27° C. and measuring the diameters of the resulting growth inhibition zones.
The results obtained as in Example 2 with other combinations are shown in Tables 4 through 7 as combination examples of respective synergistic, additive and antagonistic actions for each fragrant chemical product (a). […] It should be noted that in order to make the table smaller, combinations that have already been listed once are not listed in other columns of the tables.

SMILES	IZ: Diameter of growth inhibition zone [1] [mm]	Growth: Growth status outside the inhibition zone ([1]; 20 μl fragrance on disc)	IZ: Diameter of growth inhibition zone [2] [mm]	Growth: Growth status outside the inhibition zone [2]	IZ: Diameter of growth inhibition zone [3] [mm]	Growth: Growth status outside the inhibition zone [3]	Additive effect: second fragrance that shows additive action with the fragrance component (An-1 (Aspergillus niger))	SI: Diameter of spore formation inhibition zone [2] [mm]	SI: Diameter of spore formation inhibition zone [3] [mm]	IZ (diameter of growth inhibition zone) (An-1 (Aspergillus niger)) [mm]	Growth (growth status outside the inhibition zone) (An-1 (Aspergillus niger))	SI (diameter of spore formation inhibition zone) (An-1 (Aspergillus niger)) [mm]	Synergistic effect: second fragrance that shows synergistic action with the fragrance component (An-1 (Aspergillus niger))	Antagonistic effect: second fragrance that shows antagonistic action with the fragrance component (An-1 (Aspergillus niger))	SI: Diameter of spore formation inhibition zone ([1]; 20 μl fragrance on disc) [mm]
CCCCCCCCCCO [Example 1-Decanol, 1-Decanol]	60	weak	80	weak	40	slight	Thymol and 1-Nonanal and Methyl salicylate, and Phenylacetaldehyde, and Eugenol	–	–	–	–	–	–	–	–
C=C(C)[C@@H]1CC=C(CO)CC1 [Perilla alcohol]	45	slight	30	good	40	slight	–	40	–	–	–	–	–	–	–
CC(C)=CCC/C(C)=C/CO [Geraniol]	70	weak	45	good	30	good	Thymol,	65	45	30	weak	45	1-Nonanal	Citronellol,; also recorded: Eugenol	–
COc1ccc(C=O)cc1 [Anisaldehyde]	>85	–	45	–	35	–	–	60	40	–	–	–	–	–	–
CC1=CC(C)C(C=O)CC1 (stereo not shown) [Dimethyl tetrahydrobenzaldehyde, dimethyl tetrahydrobenzaldehyde]	>85	sparse	0	weak	>85	sparse	Thymol, and 1-Decanol	–	–	0	weak	>85	Cumin aldehyde; also recorded: Geraniol	–	–
CCC/C=C/C=O [Trans-2-hexenal]	>85	none	>85	none	>85	none	Citral DMA, and 1-Nonanal, and 9-Decen-1-ol	–	–	–	–	–	–	–	–
C=C(C)C1CC=C(C=O)CC1 (stereo not shown) [Perill aldehyde]	>85	none	>85	none	>85	none	–	–	–	–	–	–	–	–	–
C=CCc1ccc(O)c(OC)c1 [Eugenol]	70	weak	40	good	40	good	Thymol	60	60	–	–	–	–	Phenylacetaldehyde,; also recorded: Anisaldehyde,	–
COC(C=C(C)CCC=C(C)C)OC [Citral DMA, citral dimethylacetal]	>85	none	>85	none	>85	none	–	–	–	–	–	–	–	–	–
O=CCc1ccccc1 [Phenylacetaldehyde]	–	–	–	–	–	–	–	–	–	25	good	30	–	–	–
CC(C=O)Cc1ccc2c(c1)OCO2 (stereo not shown) [Helional]	0	weak	10	good	35	weak	–	35	–	–	–	–	–	–	–
CCCCCCCCC=O [Example 1-nonanal, 1-nonanal]	>85	sparse	20	weak	>85	sparse	–	–	–	–	–	–	–	–	–
COC(=O)c1ccccc1O [Methyl salicylate]	0	good	40	weak	65	weak	–	–	–	–	–	–	–	–	–
CC(C)c1cccc(=O)c(O)c1 [Hinokitiol]	0	good	60	good	70	good	–	–	–	–	–	–	–	–	–
CC=Cc1ccc(O)c(OC)c1 [Isoeugenol]	45	good	30	good	35	good	–	50	40	–	–	–	–	–	55
Cc1ccc(C(C)C)c(O)c1 [Thymol]	>85	sparse	70	weak	>85	sparse	–	>85	–	–	–	–	–	–	–
COC(/C=C/c1ccccc1)OC [Cinnamic aldehyde DMA, cinnamic aldehydodimethylacetal]	0	good	35	weak	65	slight	–	45	–	–	–	–	–	–	–
